Source: patent US4971967A, “Quinolinecarboxylic acid derivatives, antibacterial compositions and use” (Kanebo Ltd, priority 1989, dated 1990)
Values after ≈ are worked out from the molar mass of the structure shown. Counter-ions that a name gives are not always drawn.

Experiments:
Format in all cases: cell-based
[1] = tested on: Bacillus subtilis ATCC 6633; assay: Antibacterial activity (MIC), Bacillus subtilis ATCC 6633; conditions: for MIC: Bacillus subtilis, ATCC6633, Bacillus subtilis ATCC 6633, Gram +, read-out: Minimum inhibitory concentration (MIC)
Method: (§1) The compounds of the present invention (A, C, D, E, F, G, H, I, J, L, O and P) and the known compound (X) as reference were dissolved in 0.1 N aqueous sodium hydroxide to prepare a solution of 5000 μg/ml in concentration. The compounds of the present invention (B, K, M and N) and the known compound (Y) were dissolved in sterilized distilled water to prepare a solution of 5000 μg/ml in concentration. Each solution was diluted with sterilized distilled water to prepare a standard solution with a concentration of each test compound: 1000 μg/ml. The test was carried out by a method as appointed by Japan Society of Chemotherapy [cf. Chemotherapy, 29, 76-79 (1981)(TOKYO)].

Escherichia coli KC-14 = assay: Antibacterial activity (MIC), E. coli KC-14; conditions: KC14; Escherichia coli KC-14, Gram -; read-out: Minimum inhibitory concentration (MIC)
Method: as §1

[2] = tested on: Staphylococcus aureus IID 803; assay: Antibacterial activity (MIC), S. aureus IID 803; conditions: IID803; Staphylococcus aureus IID 803, Gram +; read-out: Minimum inhibitory concentration (MIC)
Method: as §1

[3] = tested on: Micrococcus luteus ATCC 9341; assay: Antibacterial activity (MIC), Micrococcus luteus ATCC 9341; conditions: ATCC9341; Micrococcus luteus ATCC 9341, Gram +; read-out: Minimum inhibitory concentration (MIC)
Method: as §1

[4] = tested on: Pseudomonas aeruginosa E-2; assay: Antibacterial activity (MIC), P. aeruginosa E-2; conditions: E2; Pseudomonas aeruginosa E-2, Gram -; read-out: Minimum inhibitory concentration (MIC)
Method: as §1

[5] = tested on: Citrobacter freundii NIHJ 10018-68; assay: Antibacterial activity (MIC), Citrobacter freundii NIHJ 10018-68; conditions: for MIC: Citrobacter freundii, NIHJ10018, Citrobacter freundii NIHJ 10018-68, Gram -, read-out: Minimum inhibitory concentration (MIC)
Method: as §1

Proteus vulgaris OX-19 = assay: Antibacterial activity (MIC), Proteus vulgaris OX-19; conditions: OX19; Proteus vulgaris OX-19, Gram -; read-out: Minimum inhibitory concentration (MIC)
Method: as §1

[6] = tested on: Proteus mirabilis IFO 3849; assay: Antibacterial activity (MIC), Proteus mirabilis IFO 3849; conditions: IFO3849; Proteus mirabilis IFO 3849, Gram -; read-out: Minimum inhibitory concentration (MIC)
Method: as §1

[7] = tested on: Staphylococcus aureus FDA 209P JC-1; assay: Antibacterial activity (MIC), S. aureus FDA 209P JC-1; conditions: FDA209P; Staphylococcus aureus FDA 209P JC-1, Gram +; read-out: Minimum inhibitory concentration (MIC)
Method: as §1

[8] = tested on: Staphylococcus epidermidis IAM-1296; assay: Antibacterial activity (MIC), S. epidermidis IAM-1296; conditions: for MIC: Staphylococcus epidermidis, IAM1296, Staphylococcus epidermidis IAM-1296, Gram +, read-out: Minimum inhibitory concentration (MIC)
Method: as §1

Shigella sonnei EW-33 = assay: Antibacterial activity (MIC), Shigella sonnei EW-33; conditions: for MIC: Shigella sonnei, EW33, Shigella sonnei EW-33, Gram -, read-out: Minimum inhibitory concentration (MIC)
Method: as §1

[9] = tested on: Streptococcus faecalis IID 682; assay: Antibacterial activity (MIC), Streptococcus faecalis IID 682; conditions: Enterococcus faecalis, IID682, Streptococcus faecalis IID 682, Gram +; read-out: Minimum inhibitory concentration (MIC)
Method: as §1

[10] = tested on: Pseudomonas aeruginosa NCTC 10490; assay: Antibacterial activity (MIC), P. aeruginosa NCTC 10490; conditions: for MIC: Pseudomonas aeruginosa, NCTC10490, Pseudomonas aeruginosa NCTC 10490, Gram -, read-out: Minimum inhibitory concentration (MIC)
Method: as §1

Enterobacter cloacae 963 = assay: Antibacterial activity (MIC), Enterobacter cloacae 963; conditions: for MIC: Enterobacter cloacae, 963, Enterobacter cloacae 963, Gram -, read-out: Minimum inhibitory concentration (MIC)
Method: as §1

[11] = tested on: Morganella morganii IFO 3848; assay: Antibacterial activity (MIC), Morganella morganii IFO 3848; conditions: for MIC: Morganella morganii, IFO3848, Morganella morganii IFO 3848, Gram -, read-out: Minimum inhibitory concentration (MIC)
Method: as §1

[12] = tested on: Enterobacter aerogenes ATCC 13048; assay: Antibacterial activity (MIC), Enterobacter aerogenes ATCC 13048; conditions: Klebsiella aerogenes, ATCC13048; Enterobacter aerogenes ATCC 13048, Gram -; read-out: Minimum inhibitory concentration (MIC)
Method: as §1

[13] = tested on: Pseudomonas aeruginosa IFO 3445; assay: Antibacterial activity (MIC), P. aeruginosa IFO 3445; conditions: for MIC: Pseudomonas aeruginosa, IFO3445, Pseudomonas aeruginosa IFO 3445, Gram -, read-out: Minimum inhibitory concentration (MIC)
Method: as §1

[14] = tested on: Salmonella typhimurium IID 971; assay: Antibacterial activity (MIC), Salmonella typhimurium IID 971; conditions: Salmonella enterica; Salmonella typhimurium IID 971, Gram -; read-out: Minimum inhibitory concentration (MIC)
Method: as §1

[15] = tested on: Serratia marcescens IAM 1184; assay: Antibacterial activity (MIC), Serratia marcescens IAM 1184; conditions: for MIC: Serratia marcescens, IAM1184, Serratia marcescens IAM 1184, Gram -, read-out: Minimum inhibitory concentration (MIC)
Method: as §1

[16] = tested on: Acinetobacter calcoaceticus AC 54; assay: Antibacterial activity (MIC), Acinetobacter calcoaceticus AC 54; conditions: AC54; Acinetobacter calcoaceticus AC 54, Gram -; read-out: Minimum inhibitory concentration (MIC)
Method: as §1

[17] = tested on: Escherichia coli NIHJ JC-2; assay: Antibacterial activity (MIC), E. coli NIHJ JC-2; conditions: NIHJJC2; Escherichia coli NIHJ JC-2, Gram -; read-out: Minimum inhibitory concentration (MIC)
Method: as §1

[18] = tested on: Klebsiella pneumoniae PCI-602; assay: Antibacterial activity (MIC), Klebsiella pneumoniae PCI-602; conditions: PCI602; Klebsiella pneumoniae PCI-602, Gram -; read-out: Minimum inhibitory concentration (MIC)
Method: as §1

Compound | MIC [1] [µg/mL] | MIC (Escherichia coli KC-14) [µg/mL] | MIC [2] [µg/mL] | MIC [3] [µg/mL] | MIC [4] [µg/mL] | MIC [5] [µg/mL] | MIC (Proteus vulgaris OX-19) [µg/mL] | MIC [6] [µg/mL] | MIC [7] [µg/mL] | MIC [8] [µg/mL] | MIC (Shigella sonnei EW-33) [µg/mL] | MIC [9] [µg/mL] | MIC [10] [µg/mL] | MIC (Enterobacter cloacae 963) [µg/mL] | MIC [11] [µg/mL] | MIC [12] [µg/mL] | MIC [13] [µg/mL] | MIC [14] [µg/mL] | MIC [15] [µg/mL] | MIC [16] [µg/mL] | other results
CN1Cc2csc3c(C(=O)O)c(=O)c4cc(F)c(N5CCC(N)C5)c1c4n23 (stereo not drawn) [(H), 9,1-(Methylimino)methano-7-fluoro-8-(3-amino-1-pyrrolidinyl)-5-oxo-5H-thiazolo[3,2-a]quinoline-4-carboxylic acid] | 0.006 (≈ 0.0154 µM) | 0.0125 (≈ 0.0322 µM) | 0.006 (≈ 0.0154 µM) | 0.2 (≈ 0.515 µM) | 0.39 (≈ 1 µM) | 0.1 (≈ 0.257 µM) | 0.0125 (≈ 0.0322 µM) | 0.1 (≈ 0.257 µM) | 0.025 (≈ 0.0644 µM) | 0.05 (≈ 0.129 µM) | 0.05 (≈ 0.129 µM) | 0.05 (≈ 0.129 µM) | 0.2 (≈ 0.515 µM) | 0.05 (≈ 0.129 µM) | 0.05 (≈ 0.129 µM) | 0.05 (≈ 0.129 µM) | 0.2 (≈ 0.515 µM) | 0.05 (≈ 0.129 µM) | 0.1 (≈ 0.257 µM) | 0.0125 (≈ 0.0322 µM) | MIC [17]: 0.05 µg/mL (≈ 0.129 µM); MIC [18]: 0.006 µg/mL (≈ 0.0154 µM)
CN1CCN(c2c(F)cc3c(=O)c(C(=O)O)c4scc5n4c3c2N(C)C5)CC1 [Compound (B), 9,1-(Methylimino)methano-7-fluoro-8-(4-methyl-1-piperazinyl)-5-oxo-5H-thiazolo [3,2-a]quinoline-4-carboxylic acid hydrochloride] | – | – | – | – | – | – | – | – | – | – | – | – | – | – | – | – | – | – | – | 0.05 | Minimum inhibitory concentration (MIC) ([1]; Bacillus subtilis ATCC 6633, Gram +, hydrochloride): 0.025 µg/mL; Minimum inhibitory concentration (MIC) ([5]; Citrobacter freundii NIHJ 10018-68, Gram -, hydrochloride): 0.39 µg/mL; Minimum inhibitory concentration (MIC) ([8]; Staphylococcus epidermidis IAM-1296, Gram +, hydrochloride): 0.10 µg/mL; Minimum inhibitory concentration (MIC) (Shigella sonnei EW-33; Shigella sonnei EW-33, Gram -, hydrochloride): 0.05 µg/mL; Minimum inhibitory concentration (MIC) ([10]; Pseudomonas aeruginosa NCTC 10490, Gram -, hydrochloride): 0.39 µg/mL; Minimum inhibitory concentration (MIC) (Enterobacter cloacae 963; Enterobacter cloacae 963, Gram -, hydrochloride): 0.10 µg/mL; Minimum inhibitory concentration (MIC) ([11]; Morganella morganii IFO 3848, Gram -, hydrochloride): 0.10 µg/mL; Minimum inhibitory concentration (MIC) ([13]; Pseudomonas aeruginosa IFO 3445, Gram -, hydrochloride): 0.78 µg/mL; Minimum inhibitory concentration (MIC) ([15]; Serratia marcescens IAM 1184, Gram -, hydrochloride): 0.39 µg/mL
CN1Cc2csc3c(C(=O)O)c(=O)c4cc(F)c(N5CCNCC5)c1c4n23 [Compound (C), 9,1-(Methylimino)methano-7-fluoro-8-(1-piperazinyl)-5-oxo-5H-thiazolo[3,2-a]quinoline-4-carboxylic acid] | 0.006 (≈ 0.0154 µM) | 0.05 (≈ 0.129 µM) | 0.05 (≈ 0.129 µM) | 0.39 (≈ 1 µM) | 0.39 (≈ 1 µM) | 0.1 (≈ 0.257 µM) | 0.006 (≈ 0.0154 µM) | 0.1 (≈ 0.257 µM) | 0.05 (≈ 0.129 µM) | 0.05 (≈ 0.129 µM) | 0.025 (≈ 0.0644 µM) | 0.05 (≈ 0.129 µM) | 0.2 (≈ 0.515 µM) | 0.05 (≈ 0.129 µM) | 0.05 (≈ 0.129 µM) | 0.05 (≈ 0.129 µM) | 0.39 (≈ 1 µM) | 0.05 (≈ 0.129 µM) | 0.2 (≈ 0.515 µM) | 0.025 (≈ 0.0644 µM) | MIC [17]: 0.05 µg/mL (≈ 0.129 µM); MIC [18]: 0.006 µg/mL (≈ 0.0154 µM)
